In patent US20260034112A1, “MULTI-CYCLIC IRAK1 AND IRAK4 INHIBITING COMPOUNDS AND USES THEREOF” (CHILDREN'S HOSPITAL MEDICAL CENTER, priority 2022, published 2026):
Like-named read-outs stand apart in the source and are kept apart here.

System: THP1 cells
Assay type: cell-based, human
Conditions: PF-06650833 vs DMSO in THP1 cells

CC[C@@H]1[C@H](F)C(=O)N[C@@H]1COc1nccc2cc(C(N)=O)c(OC)cc12 [PF-06650833, Zimlovisertib]
Log(FC) (gene ACVR1C): −0.6723 | Log(FC) (gene ADPGK-AS1): −0.6683 | Log(FC) (gene ALDH1A3): −0.6705 | Log(FC) (gene APOBR): −0.6497 | Log(FC) (gene APOC1): −0.67 | Log(FC) (gene AQP3): −0.6432 | Log(FC) (gene ARHGAP25): −0.5895 | Log(FC) (gene ARRDC3-AS1): −0.5996 | Log(FC) (gene ASGR2): −0.631 | Log(FC) (gene BMP8B): −0.6206 | Log(FC) (gene BPI): −0.6416 | Log(FC) (gene C1QL4): −0.5987 | Log(FC) (gene C1orf226): −0.604 | Log(FC) (gene C1orf228): −0.634 | Log(FC) (gene C3): −0.6607 | Log(FC) (gene C19orf35): −0.675 | Log(FC) (gene C19orf59): −0.6476 | Log(FC) (gene C20orf197): −0.6914 | Log(FC) (gene CACNA2D3): −0.6049 | Log(FC) (gene CALHM2): −0.6575 | Log(FC) (gene CCDC78): −0.6022 | Log(FC) (gene CCL23): −0.6739 | Log(FC) (gene CD300LB): −0.5972 | Log(FC) (gene CENPH): −0.6701 | Log(FC) (gene DGKG): −0.6202 | Log(FC) (gene EVI2B): −0.6362 | Log(FC) (gene FAM111B): −0.6646 | Log(FC) (gene FAM161B): −0.6003 | Log(FC) (gene FAS): −0.6791 | Log(FC) (gene FAT4): −0.6913 | Log(FC) (gene FMO5): −0.639 | Log(FC) (gene FOS): −0.5974 | Log(FC) (gene FOSL1): −0.6175 | Log(FC) (gene GAPT): −0.6025 | Log(FC) (gene GIPC3): −0.6076 | Log(FC) (gene GNG12): −0.6632 | Log(FC) (gene GPR35): −0.6621 | Log(FC) (gene HSPA1L): −0.6007 | Log(FC) (gene HYDIN2): −0.6113 | Log(FC) (gene IL1R1): −0.6855 | Log(FC) (gene IL16): −0.667 | Log(FC) (gene IQGAP2): −0.5919 | Log(FC) (gene KCNA3): −0.6759 | Log(FC) (gene KIF21B): −0.6912 | Log(FC) (gene KLHL30): −0.6632 | Log(FC) (gene KREMEN2): −0.6258 | Log(FC) (gene LDOC1): −0.6494 | Log(FC) (gene LHFPL2): −0.6019 | Log(FC) (gene LINC01094): −0.6762 | Log(FC) (gene LOC81691): −0.6095 | Log(FC) (gene LOC339862): −0.6552 | Log(FC) (gene LOC100093631): −0.631 | Log(FC) (gene LOC100507642): −0.6508 | Log(FC) (gene LOC101927841): −0.6312 | Log(FC) (gene LOC101929119): −0.6138 | Log(FC) (gene LOC101929545): −0.5904 | Log(FC) (gene LOC102723883): −0.5967 | Log(FC) (gene MPEG1): −0.6879 | Log(FC) (gene MPO): −0.6316 | Log(FC) (gene MPZ): −0.5945 | Log(FC) (gene MTMR11): −0.6705 | Log(FC) (gene MUC19): −0.6358 | Log(FC) (gene NCALD): −0.6 | Log(FC) (gene NHLRC3): −0.66 | Log(FC) (gene NHSL2): −0.639 | Log(FC) (gene NMNAT2): −0.6786 | Log(FC) (gene PAX8): −0.674 | Log(FC) (gene PCED1B-AS1): −0.6355 | Log(FC) (gene PDCD4): −0.6069 | Log(FC) (gene PODNL1): −0.6661 | Log(FC) (gene PRTN3): −0.6776 | Log(FC) (gene PSTPIP1): −0.6238 | Log(FC) (gene RGS3): −0.6231 | Log(FC) (gene RPSAP9): −0.6104 | Log(FC) (gene RSPO1): −0.6269 | Log(FC) (gene S1PR3): −0.6476 | Log(FC) (gene S1PR5): −0.6503 | Log(FC) (gene SCIMP): −0.6308 | Log(FC) (gene SERPINA1): −0.615 | Log(FC) (gene SETBP1): −0.6709 | Log(FC) (gene SIM1): −0.6107 | Log(FC) (gene SLC2A3): −0.6056 | Log(FC) (gene SLC6A11): −0.6327 | Log(FC) (gene SLC9A7): −0.6539 | Log(FC) (gene SNORA73A): −0.6228 | Log(FC) (gene SNX10): −0.6217 | Log(FC) (gene SWT1): −0.6012 | Log(FC) (gene SYN3): −0.6041 | Log(FC) (gene SYTL1): −0.5922 | Log(FC) (gene TACC2): −0.6004 | Log(FC) (gene THBS4): −0.6785 | Log(FC) (gene TLR1): −0.6365 | Log(FC) (gene TMEM45A): −0.5913 | Log(FC) (gene TMEM238): −0.6139 | Log(FC) (gene TNFSF10): −0.6794 | Log(FC) (gene TNS1): −0.6915 | Log(FC) (gene TREM1): −0.6699 | Log(FC) (gene TRIM72): −0.6733 | Log(FC) (gene ZNF630): −0.6307 | Log(FC) (gene ZNF836): −0.606
